In ChEMBL document CHEMBL1157034, “Synthesis of 1-benzyl-3-(5-hydroxymethyl-2-furyl)selenolo[3,2-c]pyrazole derivatives as new anticancer agents” (Eur J Med Chem, 2010):

Key:
MOLT-4 = experiment: Antitumor activity against human MOLT4 cells after 48 hrs by MTT assay; type: functional; details: MOLT-4, 48 h
EKVX = experiment: Antitumor activity against human EKVX cells after 48 hrs by MTT assay; type: functional
NCI-H322M = experiment: Antitumor activity against human NCI-H322M cells after 48 hrs by MTT assay; type: functional
NCI-H460 = experiment: Antitumor activity against human NCI-H460 cells after 48 hrs by MTT assay; type: functional; details: NCI-H460, 48 h
COLO 205 = experiment: Antitumor activity against human COLO205 cells after 48 hrs by MTT assay; type: functional; details: COLO 205, 48 h
HCC 2998 = experiment: Antitumor activity against human HCC2998 cells after 48 hrs by MTT assay; type: functional; details: HCC 2998, 48 h
HCT-116 = experiment: Antitumor activity against human HCT116 cells after 48 hrs by MTT assay; type: functional; details: HCT-116, 48 h
HCT-15 = experiment: Antitumor activity against human HCT15 cells after 48 hrs by MTT assay; type: functional; details: HCT-15, 48 h
HT-29 = experiment: Antitumor activity against human HT-29 cells after 48 hrs by MTT assay; type: functional; details: HT-29, 48 h
SF-268 = experiment: Antitumor activity against human SF268 cells after 48 hrs by MTT assay; type: functional; details: SF-268, 48 h
SNB-19 = experiment: Antitumor activity against human SNB19 cells after 48 hrs by MTT assay; type: functional; details: SNB-19, 48 h
Malme-3M = experiment: Antitumor activity against human MALME-3M cells after 48 hrs by MTT assay; type: functional
SK-MEL-2 = experiment: Antitumor activity against human SK-MEL-2 cells after 48 hrs by MTT assay; type: functional; details: SK-MEL-2, 48 h
SK-MEL-5 = experiment: Antitumor activity against human SK-MEL-5 cells after 48 hrs by MTT assay; type: functional; details: SK-MEL-5, 48 h
UACC-257 = experiment: Antitumor activity against human UACC257 cells after 48 hrs by MTT assay; type: functional; details: UACC-257, 48 h
OVCAR-8 = experiment: Antitumor activity against human OVCAR8 cells after 48 hrs by MTT assay; type: functional; details: OVCAR-8, 48 h
NCI/ADR-RES = experiment: Antitumor activity against human NCI/ADR-RES cells after 48 hrs by MTT assay; type: functional
SK-OV-3 = experiment: Antitumor activity against human SKOV3 cells after 48 hrs by MTT assay; type: functional; details: SK-OV-3, 48 h
ACHN = experiment: Antitumor activity against human ACHN cells after 48 hrs by MTT assay; type: functional, cell-based
RXF 393 = experiment: Antitumor activity against human RXF393 cells after 48 hrs by MTT assay; type: functional; details: RXF 393, 48 h
DU-145 = experiment: Antitumor activity against human DU145 cells after 48 hrs by MTT assay; type: functional; details: DU-145, 48 h
[1] = Antitumor activity against human MCF7/ADR cells after 48 hrs by MTT assay; type: functional; details: NCI/ADR-RES
T47D = experiment: Antitumor activity against human T47D cells after 48 hrs by MTT assay; type: functional
HL-60(TB) = experiment: Antitumor activity against human HL-60(TB) cells after 48 hrs by MTT assay; type: functional; details: HL-60, 48 h
K562 = experiment: Antitumor activity against human K562 cells after 48 hrs by MTT assay; type: functional; details: K562, 48 h
[2] = read-out: pLC50 (the source's name) (converted)

`OCc1ccc(-c2nn(Cc3ccccc3)c3cc[se]c23)o1` gave a GI50 (MOLT-4) of 22.9 µM, a CC50 (MOLT-4; [2]) greater than 100 µM and a GI50 (EKVX) of 33.1 µM. The CC50 (EKVX; [2]) was greater than 100 µM, the TGI (EKVX; read-out: pTGI) was greater than 100 µM and the GI50 (NCI-H322M) was 40.7 µM. The CC50 (NCI-H322M; [2]) was greater than 100 µM, the TGI (NCI-H322M; read-out: pTGI) was greater than 100 µM and the GI50 (NCI-H460) was 28.2 µM. For the same compound, the CC50 (NCI-H460; [2]) was greater than 100 µM, the TGI (NCI-H460; read-out: pTGI) was greater than 100 µM and the GI50 (COLO 205) was 29.5 µM. It also gave a CC50 (COLO 205; [2]) greater than 100 µM, a TGI (COLO 205; read-out: pTGI) greater than 100 µM and a GI50 (HCC 2998) of 32.4 µM. It also gave a CC50 (HCC 2998; [2]) greater than 100 µM, a TGI (HCC 2998; read-out: pTGI) greater than 100 µM and a GI50 (HCT-116) of 18.2 µM. For the same compound, the CC50 (HCT-116; [2]) was greater than 100 µM, the TGI (HCT-116; read-out: pTGI) was greater than 100 µM and the GI50 (HCT-15) was 30.2 µM. The CC50 (HCT-15; [2]) was greater than 100 µM, the TGI (HCT-15; read-out: pTGI) was greater than 100 µM and the GI50 (HT-29) was 33.9 µM. It also gave a CC50 (HT-29; [2]) greater than 100 µM, a TGI (HT-29; read-out: pTGI) greater than 100 µM and a GI50 (SF-268) of 40.7 µM. For the same compound, the CC50 (SF-268; [2]) was greater than 100 µM, the TGI (SF-268; read-out: pTGI) was greater than 100 µM and the GI50 (SNB-19) was 49 µM. It also gave a CC50 (SNB-19; [2]) greater than 100 µM, a TGI (SNB-19; read-out: pTGI) greater than 100 µM and a GI50 (Malme-3M) of 25.7 µM. For the same compound, the CC50 (Malme-3M; [2]) was greater than 100 µM, the TGI (Malme-3M; read-out: pTGI) was greater than 100 µM and the GI50 (SK-MEL-2) was 35.5 µM. It also gave a CC50 (SK-MEL-2; [2]) greater than 100 µM, a TGI (SK-MEL-2; read-out: pTGI) greater than 100 µM and a GI50 (SK-MEL-5) of 31.6 µM. The CC50 (SK-MEL-5; [2]) was greater than 100 µM, the TGI (SK-MEL-5; read-out: pTGI (converted)) was 89.1 µM and the GI50 (UACC-257) was 18.2 µM. The CC50 (UACC-257; [2]) was greater than 97.7 µM, the TGI (UACC-257; read-out: pTGI (converted)) was 41.7 µM and the GI50 (OVCAR-8; read-out: pGI50 (converted)) was 55 µM. It also gave a CC50 (OVCAR-8; [2]) greater than 100 µM, a TGI (OVCAR-8; read-out: pTGI) greater than 100 µM and a GI50 (NCI/ADR-RES; read-out: pGI50 (converted)) of 25.7 µM. The CC50 (NCI/ADR-RES; [2]) was greater than 100 µM, the TGI (NCI/ADR-RES; read-out: pTGI) was greater than 100 µM and the GI50 (SK-OV-3; read-out: pGI50 (converted)) was 46.8 µM. For the same compound, the CC50 (SK-OV-3; [2]) was greater than 100 µM, the TGI (SK-OV-3; read-out: pTGI) was greater than 100 µM and the GI50 (ACHN; read-out: pGI50 (converted)) was 25.7 µM. For the same compound, the LC50 (ACHN; read-out: pLC50 (converted)) was greater than 100 µM, the TGI (ACHN; read-out: pTGI) was less than 100 µM and the GI50 (RXF 393; read-out: pGI50 (converted)) was 11.5 µM. It also gave a CC50 (RXF 393; [2]) greater than 100 µM, a TGI (RXF 393; read-out: pTGI) of 51.3 µM and a GI50 (DU-145; read-out: pGI50 (converted)) of 45.7 µM. For the same compound, the CC50 (DU-145; [2]) was greater than 100 µM, the TGI (DU-145; read-out: pTGI) was greater than 100 µM and the CC50 [1, 2] was greater than 100 µM. For the same compound, the TGI ([1]; read-out: pTGI) was greater than 100 µM, the GI50 (T47D) was 21.4 µM and the CC50 (T47D; [2]) was greater than 100 µM. The TGI (T47D; read-out: pTGI (converted)) was 89.1 µM, the GI50 (HL-60(TB)) was 19.5 µM and the CC50 (HL-60(TB); [2]) was greater than 100 µM. It also gave a TGI (HL-60(TB); read-out: pTGI (converted)) of 49 µM, a GI50 (K562) of 25.1 µM and a CC50 (K562; [2]) greater than 100 µM. The TGI (K562; read-out: pTGI) was greater than 100 µM.
